Like-named read-outs stand apart in the source and are kept apart here.
Tests used:
[1] = not given; remark: listed apart in the source
[2] = target: T1, calcium-sensing receptor (CaR) (Homo sapiens, UniProt P41180); settings: studies have shown; cited from earlier work
T1 sequence (P41180 20-1078): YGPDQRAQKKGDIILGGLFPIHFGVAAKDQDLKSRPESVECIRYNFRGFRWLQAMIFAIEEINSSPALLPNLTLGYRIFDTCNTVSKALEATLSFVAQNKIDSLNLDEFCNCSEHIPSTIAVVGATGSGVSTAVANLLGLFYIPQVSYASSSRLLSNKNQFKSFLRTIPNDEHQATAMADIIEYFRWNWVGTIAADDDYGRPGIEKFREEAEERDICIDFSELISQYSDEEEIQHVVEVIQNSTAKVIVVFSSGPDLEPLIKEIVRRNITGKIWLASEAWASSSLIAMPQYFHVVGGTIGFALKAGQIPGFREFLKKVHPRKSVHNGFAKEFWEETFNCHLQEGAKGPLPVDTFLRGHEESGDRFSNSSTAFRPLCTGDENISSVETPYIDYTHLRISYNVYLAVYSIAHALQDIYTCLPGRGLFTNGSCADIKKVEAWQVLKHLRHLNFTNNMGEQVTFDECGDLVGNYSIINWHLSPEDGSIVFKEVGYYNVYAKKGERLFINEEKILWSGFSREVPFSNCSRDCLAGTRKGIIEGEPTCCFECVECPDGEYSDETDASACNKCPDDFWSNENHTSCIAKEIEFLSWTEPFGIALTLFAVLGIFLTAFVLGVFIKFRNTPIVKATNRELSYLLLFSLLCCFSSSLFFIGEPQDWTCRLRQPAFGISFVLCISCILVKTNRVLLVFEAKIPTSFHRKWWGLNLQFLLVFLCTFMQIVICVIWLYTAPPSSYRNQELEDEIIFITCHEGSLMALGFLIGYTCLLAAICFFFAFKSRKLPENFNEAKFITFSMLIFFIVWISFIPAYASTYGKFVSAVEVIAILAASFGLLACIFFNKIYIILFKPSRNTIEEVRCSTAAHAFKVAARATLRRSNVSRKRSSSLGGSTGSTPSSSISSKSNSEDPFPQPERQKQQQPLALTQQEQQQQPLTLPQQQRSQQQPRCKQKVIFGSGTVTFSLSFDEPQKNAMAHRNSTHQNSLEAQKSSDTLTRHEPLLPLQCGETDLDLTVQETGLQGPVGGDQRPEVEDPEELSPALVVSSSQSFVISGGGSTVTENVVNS

Molecule: [Cl-].[Cl-].[Sr+2] [Chloride, strontium chloride, reference compound]
- AUC (rat, in vivo, po): 7300 mg·min/L
- time to maximum serum strontium concentration (rats, single oral gavage): approximately 2 hours

Molecule: O=C([O-])/C=C/C(=O)[O-].[Sr+2] [Fumerate, strontium fumarate]
- SOLUBILITY AT 40° C. pH 7.5 [1]: 977 mg/L
- SOLUBILITY AT ROOM TEMPERATURE (22-24° C.) pH 7.5 [1]: 1215 mg/L

Molecule: N[C@@H](CCC(=O)[O-])C(=O)[O-].O.O.O.O.O.O.[Sr+2] [L-glutamate, strontium glutamate hexahydrate]
- AUC (female, Wistar HanTac:WH (GALAS), rat, in vivo, po): 10100 mg·min/L
- rate of metabolism (second peak of model fit) (rat, in vivo): rests longer in the serum

Molecule: O=C([O-])/C=C\C(=O)[O-].[Sr+2] [Maleate, strontium maleate]
- SOLUBILITY AT 40° C. pH 7.5 [1]: 1457 mg/L
- SOLUBILITY AT ROOM TEMPERATURE (22-24° C.) pH 7.5 [1]: 1680 mg/L

Molecule: N#Cc1c(N(CC(=O)[O-])CC(=O)[O-])sc(C(=O)[O-])c1CC(=O)[O-].[Sr+2].[Sr+2] [Ranelate, distrontium salt of 2-[N,N-di(carboxymethyl)amino]-3-cyano-4-carboxymethylthiophene-5-carboxylic acid, reference compound]
- SOLUBILITY AT 40° C. pH 7.5 [1]: 1970 mg/L
- SOLUBILITY AT ROOM TEMPERATURE (22-24° C.) pH 7.5 [1]: 890 mg/L
- time to maximum serum strontium concentration (rat, in vivo, po): approximately 2 hours

Molecule: [Sr+2] [strontium]
- activity at the calcium-sensing receptor (CaR) [2]: full agonist

Molecule: strontium alpha-ketoglutarate [α-ketogluterate]
- rate of metabolism (second peak of model fit) (rats, FIGS. 9A-B): quickly metabolized

— US8541471B2, “Water-soluble strontium salts for use in treatment of cartilage and/or bone conditions” (Osteologix A/S, priority 2003, dated 2013)
